Entries after “also recorded” stand apart in the source; their conditions may differ. Non-standard residues stand in square brackets, D forms with d. *: point of attachment. Cholesteryloxycarbonyl = CC(C)CCC[C@@H](C)[C@H]1CC[C@H]2[C@@H]3CC=C4C[C@@H](OC(=O)*)CC[C@]4(C)[C@H]3CC[C@]12C; mPEG = not defined here; Aib = CC(C)(N)C(=O)O; βAla = NCCC(=O)O
Legend:
[1] = test system: SKBR3 breast cancer cells
Protocol: Cellular viability was analyzed by flow cytometry after 72 h.

[2] = test system: SKBR3 breast cancer cells; experiment: Release of disulfide-linked fluorophore from EGF or Herceptin conjugates, confocal microscopy; format: cell-based; details: fluorophore linked via disulfide to Herceptin or EGF, ED86 at 10-fold higher concentration
Protocol: In the middle panels, a non-targeted endosome disruptive peptide (ED86) was added. In the bottom panels, a targeted cholesterol modified endosome disruptive peptide (ED108) was added. […] In conjunction with our previous studies of disulfide-linked colchinol conjugates (see provisional application), these studies provide evidence that targeting of two distinct cell surface entities (e.g., two receptors or a receptor and membrane) with a cytotoxic conjugate and an endosome disruptive peptide can confer a synthetic lethal-type effect against cancer cell lines.

PC3-PSMA cells = experiment: Binding, uptake and co-localization of fluorophore-labeled aptamers (confocal microscopy, flow cytometry); format: cell-based; details: for internalization by cells: AF488-A9, DY650-E07; for colocalization in endosomes: aptamers combined, co-incubation 1 h
Protocol: To create targeted binary cytotoxins that selectively kill PSMA+/EGFR+ prostate cancer cells, the agents both accumulate in the same endosomal compartments.
Panels B-D show fluorescence micrographs of AF488-labled anti-PSMA apamer (Panel B) and a Dy650-labeled anti-EGFR aptamer (Panel C) following co-incubation with PC3-PSMA cells for 1 h. […] The binary agents are designed to selectively kill PSMA+/EGFR+ prostate cancer cells through the mechanism proposed here both accumulate in common endosomal compartments.

| Substance | effect on cytotoxicity of the Herceptin-colchinol methyl ether disulfide conjugate [1] | release of disulfide-linked fluorophore into cytoplasm [2] | internalization by cells (PC3-PSMA cells) | colocalization in endosomes (PC3-PSMA cells) |
| --- | --- | --- | --- | --- |
| Cholesterol carbamate-(βAla)2-(Glu)2-mPEG-(βAla)4-(Aib)4-(Trp)2-Ala-Trp-Tyr-(Pro)2-Val-Val-CONH2 (Cholesteryloxycarbonyl-[βAla][βAla]EE[mPEG][βAla][βAla][βAla][βAla][Aib][Aib][Aib][Aib]WWAWYPPVV-NH2; reading uncertain) [ED108] | synergistically enhances cytotoxicity | Release of the fluorophore from EGF or Herceptin into the cytosol and nucleus was observed; also recorded: release of a disulfide-linked fluorophore from the antibody Herceptin into the cytoplasm | – | – |
| H2N-(Aib)4-(Trp)2-Ala-Trp-Tyr-(Pro)2-Val-Val-CONH2 (H-[Aib][Aib][Aib][Aib]WWAWYPPVV-NH2; SMILES CC(C)[C@H](NC(=O)[C@@H](NC(=O)[C@@H]1CCCN1C(=O)[C@@H]1CCCN1C(=O)[C@H](Cc1ccc(O)cc1)NC(=O)[C@H](Cc1c[nH]c2ccccc12)NC(=O)[C@H](C)NC(=O)[C@H](Cc1c[nH]c2ccccc12)NC(=O)[C@H](Cc1c[nH]c2ccccc12)NC(=O)C(C)(C)NC(=O)C(C)(C)NC(=O)C(C)(C)NC(=O)C(C)(C)N)C(C)C)C(N)=O) [ED86] | – | release was not observed | – | – |
| A9: PSMA-binding aptamer, 2′F RNA (GGGACCGAAAAAGACCUGACUUCUAUACUAAGUCUACGUUCCC; 2'-fluoro modified RNA, pattern not given here) [Compound A9] | – | – | internalized by PC3-PSMA cells | colocalize in endosomes |
| E07: EGFR-binding aptamer, 2′F RNA (GGACGGAUUUAAUCGCCGUAGAAAGCAUGUCAAAGCCGGAACCGUCC; 2'-fluoro modified RNA, pattern not given here) [Compound E07] | – | – | internalized by PC3-PSMA cells | colocalize in endosomes |

Reference: US9636419B2, “Targeting multiple receptors on a cell surface for specific cell targeting” (The University of Kansas, priority 2013, dated 2017)
